Laboratory results from patent publication US11111247B2, “Pyrazolopyrimidine compounds and uses thereof” (Incyte Corporation, priority 2018, dated 2021).
Like-named read-outs stand apart in the source and are kept apart here.

Tests used:
ALK2 (aa 147-end) = ALK2 (aa 147-end) (Homo sapiens (Human), UniProt Q04771); assay: ALK2 HTRF Assay; type: biochemical
FGFR2 = FGFR2 (Homo sapiens, UniProt P21802); assay: pFGFR2 Functional Cell HTRF Assay (KATOIII cells); type: cell-based
Protocol: To measure phosphorylated Fibroblast Growth Factor Receptor 2 (FGFR2), KATOIII cells (Human Gastric Carcinoma) were purchased from ATCC and maintained in Iscove's with 20% FBS (Gibco/Life Technologies). For the pFGFR2 assay, KATOIII cells were plated overnight in 5% FBS and Iscove's medium at 5×10^4 cells/well into Corning 96-well flat-bottom tissue culture treated plates. The next morning, 50 μl of fresh media with 0.5% FBS was incubated in the presence or absence of a concentration range of test compounds also at 50 μl, for 1 hour at 37° C., 5% CO2. Cell were washed with PBS, and lysed with Cell Signaling Lysis Buffer with standard Protease inhibitors for 45 min at room temperature. 4 μl total of Cis Bio Anti […] together were added to the lysate and mixed well (following directions of the kit). 16 μl was then transferred to 384 well Greiner white plates and stored at 4° C. overnight in the dark. Plates were read on the Pherastar plate reader at 665 nm and 620 nm wavelengths. IC50 determination was performed by fitting the curve of inhibitor percent inhibition versus the log of the inhibitor concentration using the GraphPad Prism 5.0 software. […] NT=Not tested.

FGFR2 (P) = FGFR2 (P) (Homo sapiens (Human), UniProt P21802); assay: FGFR Enzymatic Assay, FGFR2 phosphorylated; settings: read-out: FGFR2 (P) IC50; phosphorylated enzyme, ATP near or below Km
Chain of FGFR2 (P) (P21802 22-821): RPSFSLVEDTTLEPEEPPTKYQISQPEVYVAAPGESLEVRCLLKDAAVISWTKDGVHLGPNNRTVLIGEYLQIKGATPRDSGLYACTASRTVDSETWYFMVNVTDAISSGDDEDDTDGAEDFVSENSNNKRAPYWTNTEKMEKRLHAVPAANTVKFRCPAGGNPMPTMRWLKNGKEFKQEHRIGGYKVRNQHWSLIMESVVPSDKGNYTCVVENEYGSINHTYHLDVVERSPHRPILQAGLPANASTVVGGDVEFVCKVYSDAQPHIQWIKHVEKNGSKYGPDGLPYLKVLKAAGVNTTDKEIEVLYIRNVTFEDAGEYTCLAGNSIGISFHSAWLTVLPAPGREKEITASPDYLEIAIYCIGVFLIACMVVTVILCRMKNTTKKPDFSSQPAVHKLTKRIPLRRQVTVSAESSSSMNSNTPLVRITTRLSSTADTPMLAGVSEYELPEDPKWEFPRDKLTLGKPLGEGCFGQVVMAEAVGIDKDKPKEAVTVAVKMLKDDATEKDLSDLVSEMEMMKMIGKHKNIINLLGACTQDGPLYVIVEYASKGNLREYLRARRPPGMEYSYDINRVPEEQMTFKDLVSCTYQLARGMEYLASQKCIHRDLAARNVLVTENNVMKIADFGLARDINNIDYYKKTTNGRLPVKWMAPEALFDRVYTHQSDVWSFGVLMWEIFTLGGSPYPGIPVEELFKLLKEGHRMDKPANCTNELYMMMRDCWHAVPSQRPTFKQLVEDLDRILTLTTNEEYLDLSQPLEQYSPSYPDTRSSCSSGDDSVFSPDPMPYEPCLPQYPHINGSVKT

FGFR2 (UP) = FGFR2 (UP) (Homo sapiens (Human), UniProt P21802); assay: FGFR Enzymatic Assay, FGFR2 un-phosphorylated; settings: read-out: FGFR2 (UP) IC50; un-phosphorylated enzyme, ATP near or below Km
Chain of FGFR2 (UP) (P21802 22-821): as above
Protocol: (§2) The inhibitor potency of the exemplified compounds was determined in an enzyme discontinuous assay that measures peptide phosphorylation using FRET measurements to detect product formation. Inhibitors were serially diluted in DMSO and a volume of 0.2 μL was transferred to the wells of a 384-well plate. For the isoforms of FGFR (−1, −2, −3 wild-type and mutant isoforms, −4) including phosphorylated (P) and un-phosphorylated (UP) proteins, a 5 μL/well volume of enzyme diluted in assay buffer (50 mM HEPES, 10 mM MgCl2, 1 mM EGTA, 0.01% Tween-20, 5 mM DTT, pH 7.5) was added to the plate and pre-incubated with inhibitor for 5 to 15 minutes at ambient temperature. Appropriate controls (enzyme blank and enzyme with no inhibitor) were included on the plate. The reaction was initiated by the addition of a 5 μL/well volume containing both biotinylated [sequence] […] The plate was allowed to equilibrate for −10 minutes at ambient temperature before scanning on a PheraStar plate reader (BMG Labtech) instrument.
(§3) Either GraphPad prism or XLfit was used to analyze the data. The IC50 values were derived by fitting the data to a four parameter logistic equation producing a sigmoidal dose-response curve with a variable Hill coefficient. Prism equation: Y=Bottom+(Top−Bottom)/(1+10^((LogIC50−X)*Hill slope)); XLfit equation: Y=(A+((B−A)/(1+((X/C)^D)))) where X is the logarithm of inhibitor concentration and Y is the response.

FGFR1 = FGFR1 (Homo sapiens, UniProt P11362); assay: pFGFR1 Functional Cell HTRF Assay (BAF3-TEL-FGFR1 cells); type: cell-based
Chain of FGFR1 (P11362 22-822 limits assumed): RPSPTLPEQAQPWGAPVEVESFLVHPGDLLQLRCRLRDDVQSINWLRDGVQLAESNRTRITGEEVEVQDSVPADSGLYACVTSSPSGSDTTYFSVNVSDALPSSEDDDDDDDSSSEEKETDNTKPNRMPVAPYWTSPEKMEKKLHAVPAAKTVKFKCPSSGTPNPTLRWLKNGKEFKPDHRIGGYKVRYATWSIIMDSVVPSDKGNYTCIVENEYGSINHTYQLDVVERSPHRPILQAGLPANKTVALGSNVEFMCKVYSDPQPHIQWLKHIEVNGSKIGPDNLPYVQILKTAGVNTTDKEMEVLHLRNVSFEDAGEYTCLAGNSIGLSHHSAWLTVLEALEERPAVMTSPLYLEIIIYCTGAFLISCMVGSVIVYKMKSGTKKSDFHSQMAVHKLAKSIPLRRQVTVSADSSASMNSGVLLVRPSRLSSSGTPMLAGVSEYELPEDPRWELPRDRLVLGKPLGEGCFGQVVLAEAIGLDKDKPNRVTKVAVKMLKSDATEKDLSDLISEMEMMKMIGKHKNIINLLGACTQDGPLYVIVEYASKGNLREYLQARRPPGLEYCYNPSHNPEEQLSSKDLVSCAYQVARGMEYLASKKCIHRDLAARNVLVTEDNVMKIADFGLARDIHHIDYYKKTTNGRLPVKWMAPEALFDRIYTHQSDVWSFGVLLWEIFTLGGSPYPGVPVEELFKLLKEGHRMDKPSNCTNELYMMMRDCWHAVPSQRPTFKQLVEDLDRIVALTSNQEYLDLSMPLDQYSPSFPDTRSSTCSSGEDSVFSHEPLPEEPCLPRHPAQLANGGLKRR
Protocol: (§1) To measure phosphorylated Fibroblast Growth Factor Receptor 1 and 3 (FGF1 and FGFR3), in house stable cell lines BAF3-TEL-FGFR1 or BAF3-TEL-FGFR3 were maintained in RPMI with 10% FBS and 1 μg/ml puromycin (Gibco/Life Technologies). […] The plates were gently shaken (100 rpm) for 2 minutes at room temperature to mix well and incubated for 2 hours in a single layer at 37° C., 5% CO2. 4 μl/well of 1/25 dilution of lysis buffer #3 (Cis Bio) was added with standard Protease inhibitors and shaken at 200 rpm at room temperature for 20 minutes. 4 μl total of the Cis Bio Tb-pFGFR Ab (10 ng) and d2-FGFR3 (1 ng) together were added to the lysate and mixed well. Plates were sealed and incubated at room temperature overnight in the dark. […] IC50 determination was performed by fitting the curve of inhibitor percent inhibition versus the log of the inhibitor concentration using the GraphPad Prism 5.0 software.

FGFR3 = FGFR3 (Homo sapiens, UniProt P22607); assay: pFGFR3 Functional Cell HTRF Assay (BAF3-TEL-FGFR3 cells); type: cell-based; settings: 2 hours
Chain of FGFR3 (P22607 23-806 limits assumed): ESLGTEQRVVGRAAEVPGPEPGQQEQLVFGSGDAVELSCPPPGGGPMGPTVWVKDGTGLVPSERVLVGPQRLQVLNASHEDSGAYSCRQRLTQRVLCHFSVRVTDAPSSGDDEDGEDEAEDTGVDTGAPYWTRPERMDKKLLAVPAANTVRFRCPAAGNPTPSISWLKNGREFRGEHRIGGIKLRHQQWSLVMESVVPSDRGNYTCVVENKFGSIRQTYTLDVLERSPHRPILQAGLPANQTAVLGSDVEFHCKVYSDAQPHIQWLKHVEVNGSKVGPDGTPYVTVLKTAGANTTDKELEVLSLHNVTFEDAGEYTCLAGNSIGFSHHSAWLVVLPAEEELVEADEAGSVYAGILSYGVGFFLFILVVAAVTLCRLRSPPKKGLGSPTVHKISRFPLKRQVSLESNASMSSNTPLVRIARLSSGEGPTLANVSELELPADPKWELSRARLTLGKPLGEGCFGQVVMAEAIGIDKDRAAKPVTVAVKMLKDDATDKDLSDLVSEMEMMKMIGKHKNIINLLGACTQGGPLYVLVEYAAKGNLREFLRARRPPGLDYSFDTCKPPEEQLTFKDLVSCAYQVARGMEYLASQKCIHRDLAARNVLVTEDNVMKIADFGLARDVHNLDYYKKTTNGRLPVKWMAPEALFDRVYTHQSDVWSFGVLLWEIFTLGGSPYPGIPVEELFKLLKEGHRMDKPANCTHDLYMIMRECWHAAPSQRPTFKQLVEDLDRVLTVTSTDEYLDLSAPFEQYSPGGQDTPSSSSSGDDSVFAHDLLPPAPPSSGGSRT
Protocol: as §1

RT112 cells = assay: Luminescent Viability Assay (LVA, FGFR3); type: cell-based; settings: Homo sapiens, RT-112, 72 h, 3 days, CellTiter-Glo
In short: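 RT112 bladder cells grown in RPMI with 10% FBS were exposed to a compound concentration range for 3 days. Viability read by CellTiter-Glo luminescence; IC50 fitted from percent inhibition versus log concentration.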

FGFR3 (UP) = FGFR3 (UP) (Homo sapiens (Human), UniProt P22607); assay: FGFR Enzymatic Assay, FGFR3 un-phosphorylated; settings: read-out: FGFR3 (UP) IC50; un-phosphorylated enzyme, ATP near or below Km
Chain of FGFR3 (UP) (P22607 23-806): as the sequence (P22607 23-806 limits assumed) above
Protocol: as §2, §3

FGFR1 (UP) = FGFR1 (UP) (Homo sapiens (Human), UniProt P11362); assay: FGFR Enzymatic Assay, FGFR1 un-phosphorylated
Chain of FGFR1 (UP) (P11362 22-822): as the sequence (P11362 22-822 limits assumed) above
Protocol: as §2, §3

ALK2 mutant DIPG cell = settings: ALK2 mutant DIPG cells; cited from earlier work
[1] = 1 hour, read-out: FGFR2 HTRF IC50
[2] = BAF3-TEL-FGFR1 cells, 2 hours, read-out: FGFR1 HTRF IC50
[3] = read-out: FGFR1 (UP) IC50, un-phosphorylated enzyme, ATP near or below Km
[4] = read-out: ALK2 100 μM IC50, 100 uM ATP

Chain of FGFR2 (P21802 22-821 limits assumed): as the sequence (P21802 22-821) above
Chain of ALK2 (aa 147-end) (Q04771 147-509): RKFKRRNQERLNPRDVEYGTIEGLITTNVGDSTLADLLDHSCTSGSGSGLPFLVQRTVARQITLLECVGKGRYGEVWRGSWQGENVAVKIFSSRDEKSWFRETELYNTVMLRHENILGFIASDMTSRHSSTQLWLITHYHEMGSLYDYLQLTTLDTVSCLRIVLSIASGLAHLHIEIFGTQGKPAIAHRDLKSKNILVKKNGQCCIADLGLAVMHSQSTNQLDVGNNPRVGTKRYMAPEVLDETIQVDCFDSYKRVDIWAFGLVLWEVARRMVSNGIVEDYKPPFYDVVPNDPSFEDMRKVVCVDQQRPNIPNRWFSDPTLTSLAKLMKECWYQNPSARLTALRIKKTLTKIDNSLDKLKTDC

| SMILES | IC50 (ALK2 (aa 147-end); ALK2 3 μM IC50, 3 uM ATP) [nM] | IC50 (ALK2 (aa 147-end); ALK2 100 μM IC50, 100 uM ATP) [nM] | IC50 (FGFR2; [1]) [nM] | IC50 (FGFR2 (P)) [nM] | IC50 (FGFR2 (UP)) [nM] | IC50 (FGFR2; read-out: FGFR2 HTRF IC50, 1 hour) [nM] | IC50 (FGFR1; [2]) [nM] | IC50 (FGFR3) [nM] | IC50 (RT112 cells) [nM] | IC50 (FGFR3 (UP)) [nM] | IC50 (FGFR1 (UP); [3]) [nM] | IC50 (ALK2 (aa 147-end); [4]) [nM] | IC50 (FGFR1) [nM] | IC50 (FGFR1 (UP)) [nM] | inhibition of ALK2 mutant DIPG cell viability (ALK2 mutant DIPG cell) |
| --- | --- | --- | --- | --- | --- | --- | --- | --- | --- | --- | --- | --- | --- | --- | --- |
| CN1CC2CCC(C1=O)N2c1ncc2[nH]nc(-c3cnn(C4CCC4)c3)c2n1 (single isomer, unassigned) [Example 64, 8-(3-(1-Cyclobutyl-1H-pyrazol-4-yl)-1H-pyrazolo[4,3-d]pyrimidin-5-yl)-3-methyl-3,8-diazabicyclo[3.2.1]octan-2-one] | 100 to 500 | 500 to 2000 | < 100 | < 100 | < 100 |  |  |  |  |  |  |  |  |  |  |
| CN1CC2CCC(C1=O)N2c1ncc2[nH]nc(-c3cnn(C4CC4)c3)c2n1 (single isomer, unassigned) [Example 66, 8-(3-(1-Cyclopropyl-1H-pyrazol-4-yl)-1H-pyrazolo[4,3-d]pyrimidin-5-yl)-3-methyl-3,8-diazabicyclo[3.2.1]octan-2-one] |  |  |  |  |  | < 100 |  |  |  |  |  |  |  |  |  |
| Cn1cc(-c2n[nH]c3cnc(N4C5CCC4c4cn[nH]c4C5)nc23)cn1 (centres unmarked) [Example 45, 9-(3-(1-Methyl-1H-pyrazol-4-yl)-1H-pyrazolo[4,3-d]pyrimidin-5-yl)-1,4,5,6,7,8-hexahydro-4,7-epiminocyclohepta[c]pyrazole] | 500 to 2000 | 500 to 2000 |  | < 100 | < 100 |  | 500 to 2000 | 100 to 500 | 100 to 500 | < 100 | < 100 |  |  |  |  |
| CN1CC2CCC(C1=O)N2c1ncc2[nH]nc(-c3cnn(C)c3)c2n1 (centres unmarked) [Example 49, 3-Methyl-8-(3-(1-methyl-1H-pyrazol-4-yl)-1H-pyrazolo[4,3-d]pyrimidin-5-yl)-3,8-diazabicyclo[3.2.1]octan-2-one] | 500 to 2000 |  |  | < 100 | < 100 |  | 500 to 2000 | < 100 | 100 to 500 | < 100 | < 100 | > 2000 |  |  |  |
| CCN1CC2CCC(C1=O)N2c1ncc2[nH]nc(-c3cnn(C)c3)c2n1 (centres unmarked) [Example 50, 3-Ethyl-8-(3-(1-methyl-1H-pyrazol-4-yl)-1H-pyrazolo[4,3-d]pyrimidin-5-yl)-3,8-diazabicyclo[3.2.1]octan-2-one] |  |  |  | < 100 |  |  |  | 100 to 500 | 100 to 500 | < 100 |  |  | 100 to 500 | 100 to 500 |  |
| CC(C)N1CC2CCC(C1=O)N2c1ncc2[nH]nc(-c3cnn(C)c3)c2n1 (centres unmarked) [Example 52, 3-Isopropyl-8-(3-(1-methyl-1H-pyrazol-4-yl)-1H-pyrazolo[4,3-d]pyrimidin-5-yl)-3,8-diazabicyclo[3.2.1]octan-2-one] |  |  |  | < 100 |  |  |  | 100 to 500 | 100 to 500 | < 100 |  |  | 100 to 500 | 100 to 500 |  |
| CN1CC2CCC(C1=O)N2c1ncc2[nH]nc(-c3cnn(-c4ccncc4)c3)c2n1 (centres unmarked) [Example 68, 3-Methyl-8-(3-(1-(pyridin-4-yl)-1H-pyrazol-4-yl)-1H-pyrazolo[4,3-d]pyrimidin-5-yl)-3,8-diazabicyclo[3.2.1]octan-2-one] | 500 to 2000 |  | < 100 | < 100 | < 100 |  |  | < 100 | 100 to 500 | < 100 | < 100 | > 2000 |  |  |  |
| CN1CC2CCC(C1=O)N2c1ncc2[nH]nc(-c3cnn(-c4ccc(C#N)cc4)c3)c2n1 (centres unmarked) [Example 70, 4-(4-(5-(3-Methyl-2-oxo-3,8-diazabicyclo[3.2.1]octan-8-yl)-1H-pyrazolo[4,3-d]pyrimidin-3-yl)-1H-pyrazol-1-yl)benzonitrile] | 500 to 2000 |  | < 100 | < 100 | < 100 |  |  | < 100 | < 100 | < 100 | < 100 | > 2000 |  |  |  |
| Cc1cc(-n2cc(-c3n[nH]c4cnc(N5C6CCC5C(=O)N(C)C6)nc34)cn2)ccn1 (centres unmarked) [Example 71, 3-Methyl-8-(3-(1-(2-methylpyridin-4-yl)-1H-pyrazol-4-yl)-1H-pyrazolo[4,3-d]pyrimidin-5-yl)-3,8-diazabicyclo[3.2.1]octan-2-one] | 500 to 2000 | 500 to 2000 | < 100 | < 100 |  |  |  | < 100 | < 100 | < 100 | < 100 |  |  |  |  |
| CN1CC2CCC(C1=O)N2c1ncc2[nH]nc(-c3cnn(-c4ccc(N(C)C)nc4)c3)c2n1 (centres unmarked) [Example 72, 8-(3-(1-(6-(Dimethylamino)pyridin-3-yl)-1H-pyrazol-4-yl)-1H-pyrazolo[4,3-d]pyrimidin-5-yl)-3-methyl-3,8-diazabicyclo[3.2.1]octan-2-one] | 500 to 2000 | 500 to 2000 | < 100 | < 100 | < 100 |  |  | < 100 | 100 to 500 | < 100 | < 100 |  |  |  |  |
| Cc1cc(-n2cc(-c3n[nH]c4cnc(N5C6CCC5C(=O)N(C)C6)nc34)cn2)ccc1C#N (centres unmarked) [Example 76, 2-Methyl-4-(4-(5-(3-methyl-2-oxo-3,8-diazabicyclo[3.2.1]octan-8-yl)-1H-pyrazolo[4,3-d]pyrimidin-3-yl)-1H-pyrazol-1-yl)benzonitrile] | 500 to 2000 | 500 to 2000 | < 100 | < 100 | < 100 |  |  | < 100 | < 100 | < 100 | < 100 |  |  |  |  |
| CNC(=O)c1ccc(-n2cc(-c3n[nH]c4cnc(N5C6CCC5C(=O)N(C)C6)nc34)cn2)cc1F (centres unmarked) [Example 81, 2-Fluoro-N-methyl-4-(4-(5-(3-methyl-2-oxo-3,8-diazabicyclo[3.2.1]octan-8-yl)-1H-pyrazolo[4,3-d]pyrimidin-3-yl)-1H-pyrazol-1-yl)benzamide] | 500 to 2000 | 500 to 2000 | < 100 | < 100 |  |  |  | < 100 | < 100 | < 100 | < 100 |  |  |  |  |
| c1ccc2c(-c3cnn4cc(-c5ccc(N6CCNCC6)cc5)cnc34)ccnc2c1 [LDN-19318917] |  |  |  |  |  |  |  |  |  |  |  |  |  |  | significant inhibition |
